Source: PubChem BioAssay (NCI)
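Each compound was tested at five concentrations against cells in 96-well plates for 48 hours. The concentration for full growth arrest is given as TGI.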

Key:
Test in all cases: inhibition of tumour cell growth, NCI panel, 48 h
786-0 renal = tested on: 786-0 renal
A498 renal = tested on: A498 renal
A549 NSCLC = tested on: A549 NSCLC
ACHN renal = tested on: ACHN renal
BT-549 breast = tested on: BT-549 breast
CAKI-1 renal = tested on: CAKI-1 renal
CCRF-CEM leukemia = tested on: CCRF-CEM leukemia
COLO 205 colon = tested on: COLO 205 colon
DU-145 prostate = tested on: DU-145 prostate
EKVX NSCLC = tested on: EKVX NSCLC
HCC-2998 colon = tested on: HCC-2998 colon
HCT-116 colon = tested on: HCT-116 colon
HCT-15 colon = tested on: HCT-15 colon
HL-60(TB) leukemia = tested on: HL-60(TB) leukemia
HOP-62 NSCLC = tested on: HOP-62 NSCLC
HOP-92 NSCLC = tested on: HOP-92 NSCLC
HS 578T breast = tested on: HS 578T breast
HT29 colon = tested on: HT29 colon
K-562 leukemia = tested on: K-562 leukemia
KM12 colon = tested on: KM12 colon
LOX IMVI melanoma = tested on: LOX IMVI melanoma
M14 melanoma = tested on: M14 melanoma
MALME-3M melanoma = tested on: MALME-3M melanoma
MCF7 breast = tested on: MCF7 breast
MDA-MB-231 breast = tested on: MDA-MB-231 breast
MDA-MB-435 = tested on: MDA-MB-435
MDA-N = tested on: MDA-N
MOLT-4 leukemia = tested on: MOLT-4 leukemia
NCI-H226 lung = tested on: NCI-H226 lung
NCI-H23 lung = tested on: NCI-H23 lung
NCI-H460 lung = tested on: NCI-H460 lung
NCI-H522 lung = tested on: NCI-H522 lung
NCI/ADR-RES ovarian = tested on: NCI/ADR-RES ovarian
OVCAR-3 ovarian = tested on: OVCAR-3 ovarian
OVCAR-4 ovarian = tested on: OVCAR-4 ovarian
OVCAR-5 ovarian = tested on: OVCAR-5 ovarian
OVCAR-8 ovarian = tested on: OVCAR-8 ovarian
PC-3 prostate = tested on: PC-3 prostate
RPMI-8226 leukemia = tested on: RPMI-8226 leukemia
RXF 393 renal = tested on: RXF 393 renal
SF-268 CNS = tested on: SF-268 CNS
SF-295 CNS = tested on: SF-295 CNS
SF-539 CNS = tested on: SF-539 CNS
SK-MEL-2 melanoma = tested on: SK-MEL-2 melanoma
SK-MEL-28 melanoma = tested on: SK-MEL-28 melanoma
SK-MEL-5 melanoma = tested on: SK-MEL-5 melanoma
SK-OV-3 ovarian = tested on: SK-OV-3 ovarian
SN12C renal = tested on: SN12C renal
SNB-19 CNS = tested on: SNB-19 CNS
SNB-75 CNS = tested on: SNB-75 CNS
SR leukemia = tested on: SR leukemia
SW-620 colon = tested on: SW-620 colon
T-47D breast = tested on: T-47D breast
TK-10 renal = tested on: TK-10 renal
U251 CNS = tested on: U251 CNS
UACC-257 melanoma = tested on: UACC-257 melanoma
UACC-62 melanoma = tested on: UACC-62 melanoma
UO-31 renal = tested on: UO-31 renal
IGROV1 ovarian = tested on: IGROV1 ovarian

`COc1ccc(N2C(=O)CC(=O)N(C(=O)CCCCCCCCC(=O)N3C(=O)CC(=O)N(c4ccc(OC)cc4)C3=S)C2=S)cc1` was tested, and the TGI (786-0 renal) was over 100 µM, the TGI (A498 renal) was over 100 µM and the TGI (A549 NSCLC) was over 100 µM. It also gave a TGI (ACHN renal) of over 100 µM, a TGI (BT-549 breast) of over 100 µM and a TGI (CAKI-1 renal) of over 100 µM. For the same compound, the TGI (CCRF-CEM leukemia) was over 100 µM, the TGI (COLO 205 colon) was over 100 µM and the TGI (DU-145 prostate) was over 100 µM. It also gave a TGI (EKVX NSCLC) of over 100 µM, a TGI (HCC-2998 colon) of over 100 µM and a TGI (HCT-116 colon) of over 100 µM. For the same compound, the TGI (HCT-15 colon) was over 100 µM, the TGI (HL-60(TB) leukemia) was over 100 µM and the TGI (HOP-62 NSCLC) was over 100 µM. For the same compound, the TGI (HOP-92 NSCLC) was over 100 µM, the TGI (HS 578T breast) was over 100 µM and the TGI (HT29 colon) was over 100 µM. It also gave a TGI (K-562 leukemia) of over 100 µM, a TGI (KM12 colon) of over 100 µM and a TGI (LOX IMVI melanoma) of over 100 µM. It also gave a TGI (M14 melanoma) of over 100 µM, a TGI (MALME-3M melanoma) of over 100 µM and a TGI (MCF7 breast) of over 100 µM. For the same compound, the TGI (MDA-MB-231 breast) was over 100 µM, the TGI (MDA-MB-435) was over 100 µM and the TGI (MDA-N) was over 100 µM. It also gave a TGI (MOLT-4 leukemia) of over 100 µM, a TGI (NCI-H226 lung) of over 100 µM and a TGI (NCI-H23 lung) of over 100 µM. It also gave a TGI (NCI-H460 lung) of over 100 µM, a TGI (NCI-H522 lung) of over 100 µM and a TGI (NCI/ADR-RES ovarian) of over 100 µM. For the same compound, the TGI (OVCAR-3 ovarian) was over 100 µM, the TGI (OVCAR-4 ovarian) was over 100 µM and the TGI (OVCAR-5 ovarian) was over 100 µM. For the same compound, the TGI (OVCAR-8 ovarian) was over 100 µM, the TGI (PC-3 prostate) was over 100 µM and the TGI (RPMI-8226 leukemia) was over 100 µM. It also gave a TGI (RXF 393 renal) of over 100 µM, a TGI (SF-268 CNS) of over 100 µM and a TGI (SF-295 CNS) of over 100 µM. It also gave a TGI (SF-539 CNS) of over 100 µM, a TGI (SK-MEL-2 melanoma) of over 100 µM and a TGI (SK-MEL-28 melanoma) of over 100 µM. It also gave a TGI (SK-MEL-5 melanoma) of over 100 µM, a TGI (SK-OV-3 ovarian) of over 100 µM and a TGI (SN12C renal) of over 100 µM. It also gave a TGI (SNB-19 CNS) of over 100 µM, a TGI (SNB-75 CNS) of over 100 µM and a TGI (SR leukemia) of over 100 µM. For the same compound, the TGI (SW-620 colon) was over 100 µM, the TGI (T-47D breast) was over 100 µM and the TGI (TK-10 renal) was over 100 µM. For the same compound, the TGI (U251 CNS) was over 100 µM, the TGI (UACC-257 melanoma) was over 100 µM and the TGI (UACC-62 melanoma) was over 100 µM. It also gave a TGI (UO-31 renal) of over 100 µM.
For `COc1ccc(NC(=S)N=Nc2c(O)[nH]c3ccccc23)cc1`, the TGI (786-0 renal) was over 55.9 µM, the TGI (A498 renal) was over 83.3 µM and the TGI (A549 NSCLC) was over 100 µM. The TGI (ACHN renal) was over 95.4 µM, the TGI (BT-549 breast) was 33.2 µM and the TGI (CAKI-1 renal) was 98.3 µM. The TGI (CCRF-CEM leukemia) was over 100 µM, the TGI (COLO 205 colon) was over 100 µM and the TGI (DU-145 prostate) was over 100 µM. For the same compound, the TGI (EKVX NSCLC) was over 100 µM, the TGI (HCC-2998 colon) was over 100 µM and the TGI (HCT-116 colon) was over 100 µM. For the same compound, the TGI (HCT-15 colon) was over 100 µM, the TGI (HL-60(TB) leukemia) was over 100 µM and the TGI (HOP-62 NSCLC) was over 45.5 µM. It also gave a TGI (HOP-92 NSCLC) of over 78.7 µM, a TGI (HS 578T breast) of over 100 µM and a TGI (HT29 colon) of over 100 µM. For the same compound, the TGI (IGROV1 ovarian) was over 100 µM, the TGI (K-562 leukemia) was over 100 µM and the TGI (KM12 colon) was over 100 µM. It also gave a TGI (LOX IMVI melanoma) of over 100 µM, a TGI (M14 melanoma) of over 100 µM and a TGI (MALME-3M melanoma) of over 42.8 µM. The TGI (MCF7 breast) was over 100 µM, the TGI (MDA-MB-231 breast) was over 90.8 µM and the TGI (MDA-MB-435) was over 100 µM. The TGI (MDA-N) was over 100 µM, the TGI (MOLT-4 leukemia) was over 100 µM and the TGI (NCI-H226 lung) was over 100 µM. The TGI (NCI-H23 lung) was over 100 µM, the TGI (NCI-H460 lung) was over 100 µM and the TGI (NCI-H522 lung) was over 100 µM. For the same compound, the TGI (NCI/ADR-RES ovarian) was over 42.6 µM, the TGI (OVCAR-3 ovarian) was over 58.6 µM and the TGI (OVCAR-4 ovarian) was over 95.2 µM. The TGI (OVCAR-5 ovarian) was over 100 µM, the TGI (OVCAR-8 ovarian) was over 76.2 µM and the TGI (PC-3 prostate) was over 70 µM. The TGI (RPMI-8226 leukemia) was over 100 µM, the TGI (RXF 393 renal) was over 61 µM and the TGI (SF-268 CNS) was over 100 µM. For the same compound, the TGI (SF-295 CNS) was over 58.5 µM, the TGI (SF-539 CNS) was over 70.4 µM and the TGI (SK-MEL-2 melanoma) was over 76.4 µM. The TGI (SK-MEL-28 melanoma) was over 100 µM, the TGI (SK-MEL-5 melanoma) was over 100 µM and the TGI (SK-OV-3 ovarian) was over 68.8 µM. It also gave a TGI (SN12C renal) of over 89 µM, a TGI (SNB-19 CNS) of over 100 µM and a TGI (SNB-75 CNS) of over 78.8 µM. For the same compound, the TGI (SR leukemia) was over 100 µM, the TGI (SW-620 colon) was over 100 µM and the TGI (T-47D breast) was over 100 µM. It also gave a TGI (TK-10 renal) of over 79 µM, a TGI (U251 CNS) of over 59.9 µM and a TGI (UACC-257 melanoma) of over 100 µM. For the same compound, the TGI (UACC-62 melanoma) was over 100 µM and the TGI (UO-31 renal) was over 100 µM.
